# Results published in patent publication US12459940B2, “Oxazole compound as multi-targeted inhibitor of IRAK4 and BTK” (SHANGHAI FOSUN PHARMACEUTICAL INDUSTRIAL DEVELOPMENT CO., …, priority 2019, dated 2025).
# Where two headings read alike, the source gives them in different places.
# Legend:
# [1] = target: T1, human IRAK4 (Homo sapiens, UniProt Q9NWZ3); experiment: In vitro IRAK4 kinase activity, 33P isotope-labeled kinase activity assay (Reaction Biology Corp); type: biochemical
# T1 construct: purchased Reaction Biology Corp
# T1 sequence (Q9NWZ3 1-460): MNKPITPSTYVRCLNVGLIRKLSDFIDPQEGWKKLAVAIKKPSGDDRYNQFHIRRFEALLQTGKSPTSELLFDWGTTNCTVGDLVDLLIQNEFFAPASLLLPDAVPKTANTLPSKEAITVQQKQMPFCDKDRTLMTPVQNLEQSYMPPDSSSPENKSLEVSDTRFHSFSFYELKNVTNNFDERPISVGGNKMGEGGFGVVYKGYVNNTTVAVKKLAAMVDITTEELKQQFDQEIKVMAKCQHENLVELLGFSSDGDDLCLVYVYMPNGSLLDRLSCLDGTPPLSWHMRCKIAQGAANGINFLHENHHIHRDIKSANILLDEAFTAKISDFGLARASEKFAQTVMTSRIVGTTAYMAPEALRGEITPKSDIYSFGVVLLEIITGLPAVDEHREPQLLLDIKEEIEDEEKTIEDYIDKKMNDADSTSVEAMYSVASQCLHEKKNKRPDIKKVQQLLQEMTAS
# Protocol: The IC50 values were determined using ^33P isotope-labeled kinase activity assay (Reaction Biology Corp) to evaluate the inhibitory ability of the tested compounds on human IRAK4.
# (§1) Buffer conditions: 20 mM Hepes (pH 7.5), 10 mM MgCl2, 1 mM EGTA, 0.02% Brij35, 0.02 mg/mL BSA, 0.1 mM Na3VO4, 2 mM DTT, 1% DMSO.
# Test procedure: At room temperature, the tested compound was dissolved in DMSO to prepare a 10 mM solution for later use. The substrate was dissolved in a newly prepared buffer solution, and the tested IRAK4 kinase was added thereto and mixed evenly. The DMSO solution dissolved with the tested compound was added to the above reaction mixture mixed evenly using acoustic technique (Echo 550). After incubation for 15 minutes, ^33P-ATP was added to initiate the reaction.
# [2] = test system: TNF-α production in THP-1 cells; experiment: THP-1 cytological TNFa ELISA assay (LPS-stimulated); type: cell-based; details: Homo sapiens, TNF-α in culture supernatant, 150 ng/mL LPS, 18 hours
# Protocol: THP-1 human acute […] leukemia cells were purchased from ATCC (Cat #TIB-202) and cultured at 37° C. in 5% CO2 incubator. The composition of medium was RPMI1640 (Gibco, Cat #22400-105), and the supplementary compositions were 10% FBS (Gibco, Cat #10091148); 1% PenStrep (Gibco, Cat #15140); 0.05 mM 2-Mercaptoethanol (Sigma, Cat #M6250).
# TNF-α Elisa kit was used to detect the content of TNF-α in cell culture supernatant samples. TNF-α was produced by stimulating THP-1 cells with 150 ng/mL LPS (Sigma, Cat #L6529).
# THP-1 cells cultured normally at logarithmic growth stage were seeded in a 96-well plate (Corning #3599) at a certain concentration (1*10^5/100 μL) and then put into a cell incubator for incubation. After two hours, 16.7 μL of different concentrations of the compound to be tested (8*final concentration) were added and incubated in an incubator. After one hour, 16.7 μL of 1200 ng/mL LPS was added and incubated in an incubator. After 18 hours, the culture supernatant samples were collected by centrifugation, and the content of TNF-α could be detected by TNF-α Elisa kit. Finally, OD signals (OD450-OD570) were read on envision board reader.
# The OD450-OD570 signal value was converted into a percentage inhibition rate. Inhibition rate %=(ZPE−sample)/(ZPE−HPE)*100.
# “HPE” refers to the OD450-OD570 signal value of the control well without LPS stimulated cells, and “ZPE” refers to the OD450-OD570 signal value of the control well with LPS stimulated cells. The IC50 value of the compound was calculated by XLFit in the excel add-in. Y=Bottom+(Top−Bottom)/(1+(IC50/X)^HillSlope). Equation: […]
# [3] = test system: OCI-LY10 human B-cell lymphoma cells; experiment: OCI-LY10 cell proliferation inhibition (CellTiter-Glo); type: cell-based; details: OCI-Ly10, 72 h, treated for 3 days
# Protocol: OCI-LY10 human B-cell lymphoma cells were cultured in a 37° C., 5% CO2 incubator. The composition of medium was IMDM (GIBCO, Cat #12440053); the supplementary compositions were 20% FBS (Hyclone, Cat #SH30084.03); 1% PenStrep (Thermo, Cat #SV30010).
# The tumor cell lines OCI-LY10 and TMD8 were used to detect the effect of the compound on inhibiting tumor cell proliferation in vitro. The tumor cell line was cultured in a 37° C., 5% CO2 incubator according to the culture conditions shown, and passaged regularly, then the cells in the logarithmic growth phase were taken, counted, and spread in a 96-well plate (the cells in each well were adjusted to an appropriate concentration, a total of […] per well was added). After incubating overnight in a 37° C., 5% CO2 incubator, drugs with different concentration gradients (10 μL of drug solution was added) were added and treated for 3 days, then 50 μL of CellTiter-Glo working solution was added to each well, and the cell plate was wrapped with aluminum foil to avoid light. The culture plate was shaken on an orbital shaker for 2 minutes to induce cell lysis, and placed at room temperature for 10 minutes to stabilize the luminescence signal, then the luminescence signal was detected on the 2104 EnVision plate reader.
# The Inhibition rate (IR) of the tested compound was calculated using the following formula: IR (%)=(1−(RLU compound−RLU blank control)/(RLU solvent control−RLU blank control))*100%.
# The inhibition rates of different concentrations of the compounds were calculated in Excel, and then the inhibition curves were made by GraphPad Prism software and the related parameters were calculated, including the minimum inhibition rate, the maximum inhibition rate and IC50.
# [4] = target: T2, human BTK (Homo sapiens, UniProt Q06187); experiment: In vitro BTK kinase activity, 33P isotope-labeled kinase activity assay (Reaction Biology Corp); type: biochemical; details: 33P-ATP, 2 hours at room temperature
# T2 construct: purchased Reaction Biology Corp
# T2 sequence (Q06187 whole entry): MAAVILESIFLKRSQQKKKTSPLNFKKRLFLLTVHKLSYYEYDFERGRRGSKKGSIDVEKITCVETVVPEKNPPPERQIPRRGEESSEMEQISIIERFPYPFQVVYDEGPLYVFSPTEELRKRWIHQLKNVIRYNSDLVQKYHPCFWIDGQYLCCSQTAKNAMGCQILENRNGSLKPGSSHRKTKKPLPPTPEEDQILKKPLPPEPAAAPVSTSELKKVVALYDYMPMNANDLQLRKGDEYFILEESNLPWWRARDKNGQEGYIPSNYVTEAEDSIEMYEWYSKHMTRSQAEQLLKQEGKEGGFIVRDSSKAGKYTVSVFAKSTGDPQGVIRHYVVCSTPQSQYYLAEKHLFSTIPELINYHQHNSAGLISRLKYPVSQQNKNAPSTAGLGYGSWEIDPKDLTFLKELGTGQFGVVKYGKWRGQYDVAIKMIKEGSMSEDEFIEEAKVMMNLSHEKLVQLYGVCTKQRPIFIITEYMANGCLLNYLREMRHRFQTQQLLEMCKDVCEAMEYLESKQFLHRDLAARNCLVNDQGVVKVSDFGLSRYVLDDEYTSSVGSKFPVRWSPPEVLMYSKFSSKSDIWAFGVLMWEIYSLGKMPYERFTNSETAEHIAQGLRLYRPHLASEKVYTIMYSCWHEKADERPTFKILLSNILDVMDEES
# Protocol: The IC50 values were determined using ^33P isotope-labeled kinase activity assay (Reaction Biology Corp) to evaluate the inhibitory ability of the tested compounds on human BTK.
# as §1
# Test procedure: At room temperature, the tested compound was dissolved in DMSO to prepare a 10 mM solution for later use. The substrate was dissolved in a newly prepared buffer solution, and the tested BTK kinase was added thereto and mixed evenly. The compound dissolved in DMSO was added to the kinase reaction mixture through Echo 550 (Acoustic technology; Nanoliter range). After incubation for 20 minutes at room temperature, ^33P-ATP was added to initiate the reaction. The reaction was carried out at room temperature for 2 hours, and the radioactivity of the reaction liquid point was detected by filtration-binding method with P81 ion exchange filter paper. The kinase activity data were expressed by comparing the kinase activity of the group containing the tested compound with the kinase activity of the blank group (only containing DMSO), and the IC50 value was obtained by curve fitting by Prism4 software (GraphPad), the experimental results are shown in Table 10.
# [5] = 33P-ATP, 120 minutes at room temperature, read-out: IRAK4/IC50
SMILES,"IC50 [1, 5] [nM]",IC50 [3] [nM],IC50 [4] [nM],IC50 [2] [nM],IC50 [1] [nM]
CC(=O)N1CCN(c2cc3nc(CCC(C)(C)O)cn3cc2NC(=O)c2coc(-c3ccnc(C)c3)n2)CC1 [WX005],1.1,,,256,
Cc1cc(-c2nc(C(=O)Nc3cn4cc(CCC(C)(C)O)nc4cc3-c3ccc(F)cc3)co2)ccn1 [WX026],,349,30.7,,
Cc1cc(-c2nc(C(=O)Nc3cn4cc(CCC(C)(C)O)nc4cc3N3CCC(O)CC3)co2)ccn1 [WX006],,,47.5,107,1.2
COC(=O)N1CCN(c2cc3nc(CCC(C)(C)O)cn3cc2NC(=O)c2coc(-c3ccnc(C)c3)n2)CC1 [WX004],,,,77,1.3
Cc1cc(-c2nc(C(=O)Nc3cn4cc(CCC(=O)O)nc4cc3N3CCCCC3)co2)ccn1 [WX018],,,47.5,104,0.9
Cc1cc(-c2nc(C(=O)Nc3cn4cc(CCC(=O)O)nc4cc3-c3ccccc3)co2)ccn1 [WX039],1,,29,,
CC(C)(O)CCc1cn2cc(NC(=O)c3coc(-c4ccnc(C5CC5)c4)n3)c(N3CCCCC3)cc2n1 [WX012],1,,6.9,,
[2H]c1c([2H])c([2H])c(-c2cc3nc(CCC(C)(C)O)cn3cc2NC(=O)c2coc(-c3ccnc(C)c3)n2)c([2H])c1[2H] [WX033],1.6,,20.2,,
Cc1cc(-c2nc(C(=O)Nc3cn4cc(CCC(C)(C)O)nc4cc3N3CCC(F)(F)CC3)co2)ccn1 [WX009],,,46,,0.7
Cc1cc(-c2nc(C(=O)Nc3cn4cc(CCC(C)(C)O)nc4cc3N3CCC(CN)CC3)co2)ccn1 [WX014],,,25.7,,0.9
Cc1cc(-c2nc(C(=O)Nc3cn4cc(CCC(=O)O)nc4cc3N3CCC(CO)CC3)co2)ccn1 [WX020],,,8.5,,0.5
Cc1cc(-c2nc(C(=O)Nc3cn4cc(CCC(=O)O)nc4cc3N3CCC(F)(F)CC3)co2)ccn1 [WX017],1.6,,,321,
Cc1cc(-c2nc(C(=O)Nc3cn4cc(CCC(C)(C)O)nc4cc3-c3cccc(F)c3)co2)ccn1 [WX025],,94,21.8,21,0.7
Cc1cc(-c2nc(C(=O)Nc3cn4cc(CCC(C)(C)O)nc4cc3-c3ccccc3F)co2)ccn1 [WX024],,208,30.5,13,0.7
Cc1cc(-c2nc(C(=O)Nc3cn4cc(CCC(C)(C)O)nc4cc3N3CCNCC3)co2)ccn1 [WX003],,,,557,2.2
CC(C)(O)CCc1cn2cc(NC(=O)c3coc(-c4ccnc(C#N)c4)n3)c(N3CCCCC3)cc2n1 [WX015],,,6.4,,0.4
Cc1cc(-c2nc(C(=O)Nc3cn4cc(CCC(C)(C)O)nc4cc3C3CCCCC3)co2)ccn1 [WX022],,,43.1,,0.7
CC(C)c1cc(-c2nc(C(=O)Nc3cn4cc(CCC(C)(C)O)nc4cc3N3CCCCC3)co2)ccn1 [WX011],,,23.6,140,1.5
Cc1cc(-c2nc(C(=O)Nc3cn4cc(CCC(C)(C)O)nc4cc3N3CCOCC3)co2)ccn1 [WX002],,,,,1.2
Cc1cc(-c2nc(C(=O)Nc3cn4cc(CCC(C)(C)O)nc4cc3-c3ccccc3C(N)=O)co2)ccn1 [WX027],11,,,,

# Second part, led by results:
"IC50 [1, 5] [nM]",IC50 [3] [nM],IC50 [4] [nM],SMILES,IC50 [2] [nM],IC50 [1] [nM]
2,,,Cc1cc(-c2nc(C(=O)Nc3cn4cc(CCC(C)(C)O)nc4cc3C3CC3)co2)ccn1 [WX007],240,
,209,,Cc1cc(-c2nc(C(=O)Nc3cn4cc(CCC(C)(C)O)nc4cc3-c3ccc(Cl)cc3)co2)ccn1 [WX030],,
,386,26.5,Cc1cc(-c2nc(C(=O)Nc3cn4cc(CCC(C)(C)O)nc4cc3-c3cccs3)co2)ccn1 [WX032],,
0.2,,1.4,Cc1cc(-c2nc(C(=O)Nc3cn4cc(CCC(C)(C)O)nc4cc3N3CCC(CO)CC3)co2)ccn1 [WX013],,
2.5,,43.1,Cc1cc(-c2nc(C(=O)Nc3cn4cc(CCC(C)(C)O)nc4cc3N3CCC(C(=O)O)CC3)co2)ccn1 [WX046],,
,,3.8,Cc1cc(-c2nc(C(=O)Nc3cn4cc(CCS(C)(=O)=O)nc4cc3N3CCCCC3)co2)ccn1 [WX042],,
8.4,,,Cc1cc(-c2nc(C(=O)Nc3cn4cc(CCC(=O)O)nc4cc3-c3cccnc3)co2)ccn1 [WX023],,
2.1,,4.6,Cc1cc(-c2nc(C(=O)Nc3cn4cc(CCC(C)(C)O)nc4cc3N3CCC(C)(C)CC3)co2)ccn1 [WX008],,
1.9,,,CC(C)(O)CCc1cn2cc(NC(=O)c3coc(-c4ccnc(C(N)=O)c4)n3)c(N3CCCCC3)cc2n1 [WX044],,
2.4,,,CC(C)(O)CCc1cn2cc(NC(=O)c3coc(-c4ccnc(C(F)(F)F)c4)n3)c(N3CCCCC3)cc2n1 [WX010],332,
,289,24.2,Cc1cc(-c2nc(C(=O)Nc3cn4cc(CCC(C)(C)O)nc4cc3-c3c(F)cccc3F)co2)ccn1 [WX029],,
,96,39.6,Cc1cc(-c2nc(C(=O)Nc3cn4cc(CCC(C)(C)O)nc4cc3-c3cccc(Cl)c3)co2)ccn1 [WX031],,
